These results are taken from PubChem BioAssay AID1259411 (Chemical Carcinogenesis Research Information System (CCRIS), 2018).

The source made the active and inactive calls. No rule for the calls is given here.

This series deals with rodent carcinogenicity bioassays, tumor incidence. Put plainly: CCRIS carcinogenicity studies. Particulars: Dose: 0, Dose: 0. An outline of the steps:
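NCI-built, expert-reviewed records of carcinogenicity and related test outcomes (mutagenicity, tumor promotion/inhibition) compiled from published and report sources, historical span 1985-2011, not updated.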

Consider `[O]=[Co]`, for which the carcinogen call is, setting by setting: (Species: RAT, Strain/Sex: SPRAGUE-DAWLEY/FEMALE, Route: INTRATRACHEAL, 2, 10 MG/KG EVERY 14 D FOR TOTAL DOSES OF 0, 78, 390 MG/KG (STUDY DURATION: 2 YR), 2, 10 MG/KG EVERY 14 D FOR TOTAL DOSES OF 0, 78, 390 MG/KG (STUDY DURATION: 2 YR)) “inactive; negative”; (Species: RAT, Strain/Sex: SPRAGUE-DAWLEY/MALE,FEMALE, Route: INTRAPERITONEAL, 200 MG/KG EVERY 2 MO FOR TOTAL DOSES OF 0, 600 MG/KG, 200 MG/KG EVERY 2 MO FOR TOTAL DOSES OF 0, 600 MG/KG, Tumor Site: Type of Lesion: PERITONEUM: TUMORS) “active; positive”; (Species: RAT, Strain/Sex: SPRAGUE-DAWLEY/MALE, Route: INTRATRACHEAL, 2, 10 MG/KG EVERY 14 D FOR TOTAL DOSES OF 0, 78, 390 MG/KG (STUDY DURATION: 2 YR), 2, 10 MG/KG EVERY 14 D FOR TOTAL DOSES OF 0, 78, 390 MG/KG (STUDY DURATION: 2 YR), Tumor Site: Type of Lesion: LUNG: TUMOR) “active; positive”; (Species: RAT, Strain/Sex: SPRAGUE-DAWLEY/MALE, Route: SUBCUTANEOUS, 2 MG/KG 5/WK FOR TOTAL DOSES OF 0, 1000 MG/KG (STUDY DURATION: 2 YR), 2 MG/KG 5/WK FOR TOTAL DOSES OF 0, 1000 MG/KG (STUDY DURATION: 2 YR), Tumor Site: Type of Lesion: SUBCUTANEOUS TISSUE: TUMORS) “active; positive”; (Species: RAT, Strain/Sex: SPRAGUE-DAWLEY/MALE, Route: SUBCUTANEOUS, 10 MG/KG 1/WK FOR TOTAL DOSES OF 0, 1000 MG/KG (STUDY DURATION: 2 YR), 10 MG/KG 1/WK FOR TOTAL DOSES OF 0, 1000 MG/KG (STUDY DURATION: 2 YR), Tumor Site: Type of Lesion: SUBCUTANEOUS TISSUE: TUMORS) “active; positive”.

With `NNC(N)=S`, the carcinogen call is “inactive; negative” (Species: MOUSE, Strain/Sex: SWISS/FEMALE, Route: ORAL, 156, 312 PPM IN DRINKING WATER DAILY FOR LIFE (STUDY DURATION: 130-140 WK), 156, 312 PPM IN DRINKING WATER DAILY FOR LIFE (STUDY DURATION: 130-140 WK)) and “inactive; negative” (Species: MOUSE, Strain/Sex: SWISS/MALE, Route: ORAL, 156, 312 PPM IN DRINKING WATER DAILY FOR LIFE (STUDY DURATION: 130-140 WK), 156, 312 PPM IN DRINKING WATER DAILY FOR LIFE (STUDY DURATION: 130-140 WK)).

`CC(C)C/C=N/N(C)C=O`: the carcinogen call by setting is: (Species: MOUSE, Strain/Sex: SWISS/FEMALE, Route: GAVAGE, 50 UG/G BW DISSOLVED IN PROPYLENE GLYCOL 1/WK FOR 2 WK (STUDY DURATION: LIFETIME), Tumor Site: Type of Lesion: THYROID: TUMOR, LUNG: TUMOR) “active; positive”; (Species: MOUSE, Strain/Sex: SWISS/FEMALE, Route: GAVAGE, 50 UG/G BW DISSOLVED IN PROPYLENE GLYCOL 1/WK FOR 53 WK (STUDY DURATION: LIFETIME), Tumor Site: Type of Lesion: LUNG: TUMOR, LIVER: TUMOR, GALLBLADDER: TUMOR, Tumor Site: Type of Lesion: LUNG: TUMOR, LIVER: TUMOR, GALLBLADDER: TUMOR) “active; positive”; (Species: MOUSE, Strain/Sex: SWISS/MALE, Route: GAVAGE, 50 UG/G BW DISSOLVED IN PROPYLENE GLYCOL 1/WK FOR 2 WK (STUDY DURATION: LIFETIME), Tumor Site: Type of Lesion: LUNG: TUMOR, THYROID: TUMOR) “active; positive”; (Species: MOUSE, Strain/Sex: SWISS/MALE, Route: GAVAGE, 50 UG/G BW DISSOLVED IN PROPYLENE GLYCOL 1/WK FOR 53 WK (STUDY DURATION: LIFETIME), Tumor Site: Type of Lesion: LUNG: TUMOR, LIVER: TUMOR, GALLBLADDER: TUMOR, PREPUTIAL GLAND: TUMOR, Tumor Site: Type of Lesion: LUNG: TUMOR, LIVER: TUMOR, GALLBLADDER: TUMOR, PREPUTIAL GLAND: TUMOR) “active; positive”.
